For series [1] the following is noted: plasma in vitro; cited from earlier work.
For series [2] the following is noted: clinical trials, acute respiratory distress syndrome; cited from earlier work.
For series [3] the following is noted: human, up to 120 minutes.
A short description of series [4]: in vivo study in male rats. As to conditions: cited from earlier work.

Entries after “also recorded” stand apart in the source; their conditions may differ.

As to `CSCC[C@H](NC(=O)[C@@H]1CCCN1C(=O)CNC(=O)[C@H](CCCCN)NC(=O)[C@H](Cc1cnc[nH]1)NC(=O)[C@H](CO)NC(=O)[C@H](CC(C)C)NC(=O)[C@H](CCCNC(=N)N)NC(=O)[C@@H]1CCCN1C(=O)[C@H](CCCNC(=N)N)NC(=O)[C@@H]1CCC(=O)N1)C(=O)N1CCC[C@H]1C(=O)N[C@@H](Cc1ccccc1)C(=O)O` [[Pyr^1]apelin-13], in series [1], the “degradation in rat and mouse plasma compared to dog, monkey and human plasma” value was “more rapid degradation”.
For the molecule “GSK2586881: recombinant human ACE2 for treatment of acute respiratory distress syndrome”, the tolerability entry in series [2] was “well-tolerated”.
Consider “pGlu Arg Pro Arg Leu Ser His Lys Gly Pro Met Pro Phe”, for which the cleaved bond entry in series [3] was “Pro10-Met11, major, 120 minutes; also recorded: Ser6-His7, major, 120 minutes; also recorded: Leu5-Ser6, 120 minutes”. For the same molecule, the fragment found result in series [4] was “[Pyr^1]apelin-13(1–12); also recorded: [Pyr^1]apelin-13(1–10); also recorded: [Pyr^1]apelin-13(1–6)”.

Source of the values: PMC6934825 (Scientific Reports, 2019).
